Measurements from patent US9750708B2 (The Regents of the University of California, priority 2006, dated 2017).

Columns and labels:
[1] = system: mice with the gene mutation for Huntington's disease; conditions: mouse, in vivo; cited from earlier work
gastrin = test: Serum gastrin after intraluminal delivery of cysteamine (radioimmunoassay); format: in vivo, human
From the text: (§1) Immediately proximal to the balloon was an infusion port (1 mm diameter) through which the drug was delivered. […] On day 1 of the study, the nasoenteric tube was inserted into the stomach. By day 3 of the study the tube had passed into the proximal small intestine (SI) just distal to the ligament of Treitz (confirmed fluoroscopically). The balloon was then inflated, and peristalsis propelled the tube distally. Tube position within the cecum was confirmed fluoroscopically on day 5 (day 7 in 4 patients because of slow transit). If the tube had migrated too far, it was retracted into the desired location.
(§2) After an overnight fast (except for water) blood samples were taken at baseline and at varying intervals after intraluminal delivery of cysteamine. […] Gastrin was measured in picograms/mL with the Diagnostic Products Corporation (Los Angeles, Calif.) gastrin radioimmunoassay-assay kit. Leukocyte cystine levels were measured in nmol half-cystine per mg protein by the Cystine Determination Lab (La Jolla, Calif.).
REML repeated measures analyses of variance were also performed as described above on gastrin levels. […] A 5% significance level was used without adjustment for all statistical testing.

leukocyte cystine [2] = conditions: cited from earlier work
leukocyte cystine [3] = test: Leukocyte cystine levels after intraluminal delivery of cysteamine in patients with cystinosis; format: in vivo, human
From the text: as §1, §2
AOC is computationally analogous to area under the curve, but it is applied when values are predominantly decreasing below baseline values. Large AOC values reflect large decreases, and a negative AOC reflects a net increase in value. Main effects for site of delivery, time after delivery, and the interaction between site and time were tested, except just the site effect was tested for AOCs. In the absence of significant interaction when a main effect was detected, Tukey's honestly significant difference test (HSD) was applied to identify where differences occurred within a 5% family wise error rate. The Tukey HSD procedure controls for overall significance level when performing all pairwise comparisons.

[4] = Plasma cysteamine after delivery of cysteamine through a nasoenteric tube into stomach, small intestine or cecum; format: in vivo; conditions: human, 10 mg/kg/dose of base, Mean plasma cysteamine Cmax
Experimental: Adult control patients were recruited locally. […] None of the patients had undergone kidney transplantation. Baseline chemistry, Helicobacter pylori serologic study, complete blood count, and urinalysis were performed.
as §1, §2
Differences between means for the 3 sites were tested, plus group and group x site interaction effects for the combined groups. If a site effect was detected, Tukey's HSD was applied to determine which sites differed from each other.

[5] = Symptoms after intraluminal cysteamine delivery; format: in vivo, human; conditions: cystinosis subject
From the text: as §1
Only 2 patients (1 male, 1 female) with cystinosis reported regular GI symptoms before the study, and these had responded to acid-suppression therapy. […] No other symptoms were reported after any other cysteamine delivery in the children with cystinosis. There were no associated adverse events with tube placement or removal.

[6] = children with cystinosis; cited from earlier work

NCCSSCCN [Cystamine, cystamine]
Effect in mice with the gene mutation for Huntington's disease [1]: alleviate tremors and prolong life

NCCS [cysteamine]
Gastrin level after gastric cysteamine (gastrin; 1 child with severe GI symptoms, 30 minutes after gastric delivery, baseline 70 pg/mL): 121 pg/mL
Gastrin levels, baseline and post-cysteamine (undetectable) (gastrin; control group, more than half of the levels, any delivery site): < 25 pg/mL
Period of activity (leukocyte cystine [2]; oral Cystagon capsules): 5 to 6 h
Time leukocyte cystine level remained suppressed (leukocyte cystine [2]; single dose administered intravenously): more than 24 hours
Depletion of intracellular cystine (leukocyte cystine [2]; taken regularly, measured in circulating white blood cells): up to 90%
Time leukocyte cystine levels remained at the 1-hour level (leukocyte cystine [3]; after delivery, at 48 hours not returned to pre-cysteamine level): 24 h
Time leukocyte cystine levels remained below pre-delivery levels (leukocyte cystine [3]; single dose of cysteamine into the small intestine (FIG. 3)): up to 12 hours
Decrease in leukocyte cystine after cysteamine delivery (leukocyte cystine [3]; within an hour of delivery): dramatic decrease in leukocyte cystine
Cmax ([4]; other: infused through nasoenteric tube into cecum, combined cystinosis and control subjects, delivery into cecum): 22.5 µM
Cmax ([4]; other: infused through nasoenteric tube into cecum, control subjects, delivery into cecum): 23.1 µM
Cmax ([4]; other: infused through nasoenteric tube into cecum, cystinosis subjects, delivery into cecum): 21.9 µM
Cmax ([4]; other: infused through nasoenteric tube into small intestine, combined cystinosis and control subjects, delivery into small intestine): 53.2 µM
Cmax ([4]; other: infused through nasoenteric tube into small intestine, control subjects, delivery into small intestine): 51.1 µM
Cmax ([4]; other: infused through nasoenteric tube into small intestine, cystinosis subjects, delivery into small intestine): 55.8 µM
Cmax ([4]; other: infused through nasoenteric tube into stomach, combined cystinosis and control subjects, delivery into stomach): 37.8 µM
Cmax ([4]; other: infused through nasoenteric tube into stomach, control subjects, delivery into stomach): 39.5 µM
Cmax ([4]; other: infused through nasoenteric tube into stomach, cystinosis subjects, delivery into stomach): 35.5 µM
Symptoms after infusion into the proximal small intestine [5]: did not have any symptoms
Symptoms after intragastric cysteamine ([5]; about 15 minutes after delivery): severe retching and emesis

COc1ccc2c(c1)c(CC(=O)O)c(C)n2C(=O)c1ccc(Cl)cc1 [indomethacin]
Reduction of urine volume and liquid consumption [6]: about 30%
